Article PMC4730117, “In vitro Biochemical Characterization of All Barley Endosperm Starch Synthases” (Frontiers in Plant Science, 2016)
One block for each molecule: values may come before it.

What was measured:
HvSSI = biological target: T1, HvSSI (Hordeum vulgare, UniProt Q9M5A3); test: biochemical; design: Thermofluor (differential scanning fluorimetry, Sypro orange), shift of melting temperature of HvSSI versus no additive; conditions: 0.1 mg/mL HvSSI, 1X Sypro orange, 20 mM Tris pH 8.0, 100 mM NaCl, read-out: Δ Tm to reference; for ΔTm at 10000 µM: 10 mM
T1 construct: gene SSI; without predicted chloroplast transit peptide, N-terminal His-tag, codon-optimised, E. coli
T1 sequence (Q9M5A3 32-643): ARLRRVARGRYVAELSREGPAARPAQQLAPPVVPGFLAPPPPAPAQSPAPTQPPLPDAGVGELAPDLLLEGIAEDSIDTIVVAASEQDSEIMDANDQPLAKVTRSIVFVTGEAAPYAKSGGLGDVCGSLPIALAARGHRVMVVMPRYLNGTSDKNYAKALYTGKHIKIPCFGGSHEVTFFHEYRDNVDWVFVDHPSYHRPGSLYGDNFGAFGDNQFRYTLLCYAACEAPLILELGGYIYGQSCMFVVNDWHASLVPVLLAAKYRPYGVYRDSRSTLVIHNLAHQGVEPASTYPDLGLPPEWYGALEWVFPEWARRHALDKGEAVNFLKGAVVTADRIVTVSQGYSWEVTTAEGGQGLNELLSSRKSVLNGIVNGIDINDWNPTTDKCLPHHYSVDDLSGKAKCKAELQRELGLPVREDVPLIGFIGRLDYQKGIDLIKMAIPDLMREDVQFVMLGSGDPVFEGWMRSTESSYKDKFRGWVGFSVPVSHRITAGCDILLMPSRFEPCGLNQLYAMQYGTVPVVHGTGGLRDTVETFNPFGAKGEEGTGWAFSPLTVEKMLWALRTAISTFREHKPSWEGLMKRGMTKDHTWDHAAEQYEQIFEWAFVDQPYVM
Method: HvSSI unfolding temperatures were measured with a variant of the Thermofluor method (Niesen et al., [2007]). Details are given in S.I. The effect of additives on SSI stability was studied in some detail with the thermofluor assay; details for many additives are given in S.I. The strongest effects were from sugars, which increased protein stability by 1°C for every 50 mM hexose present as oligosaccharides, with glucose and other monosaccharides having only half the effect.

[1] = substrate: Nc1ncnc2c1ncn2[C@@H]1O[C@H](COP(=O)(O)OP(=O)(O)O[C@H]2O[C@H](CO)[C@@H](O)[C@H](O)[C@H]2O)[C@@H](O)[C@H]1O; test: coupled spectrophotometric assay (pyruvate kinase / lactate dehydrogenase, NADH); assay type: biochemical, Hordeum vulgare; conditions: 10 mM maltotriose acceptor, 50 mM Bicine pH 8.5, 25 mM KOAc, 2 mM MgCl2, 37°C
Description: coupled spectrophotometric assay (pyruvate kinase / lactate dehydrogenase, NADH) on HvSSIIIb

[2] = substrate: Nc1ncnc2c1ncn2[C@@H]1O[C@H](COP(=O)(O)OP(=O)(O)O[C@H]2O[C@H](CO)[C@@H](O)[C@H](O)[C@H]2O)[C@@H](O)[C@H]1O; test: as above; assay type: biochemical, Hordeum vulgare; conditions: 10 mM maltotriose acceptor, 50 mM Bicine pH 8.5, 25 mM KOAc, 2 mM MgCl2, 37°C; remark: listed apart in the source
Description: coupled spectrophotometric assay (pyruvate kinase / lactate dehydrogenase, NADH) on HvSSI

[3] = substrate: Nc1ncnc2c1ncn2[C@@H]1O[C@H](COP(=O)(O)OP(=O)(O)O[C@H]2O[C@H](CO)[C@@H](O)[C@H](O)[C@H]2O)[C@@H](O)[C@H]1O; test: as above; assay type: biochemical, Hordeum vulgare; conditions: 100 mM maltose (DP = 2) acceptor, 50 mM Bicine pH 8.5, 25 mM KOAc, 2 mM MgCl2, 37°C
Description: coupled spectrophotometric assay (pyruvate kinase / lactate dehydrogenase, NADH) on HvGBSSI

[4] = substrate: Nc1ncnc2c1ncn2[C@@H]1O[C@H](COP(=O)(O)OP(=O)(O)O[C@H]2O[C@H](CO)[C@@H](O)[C@H](O)[C@H]2O)[C@@H](O)[C@H]1O; test: as above; assay type: biochemical, Hordeum vulgare; conditions: 10 mM maltotriose acceptor, 50 mM Bicine pH 8.5, 25 mM KOAc, 2 mM MgCl2, 37°C; remark: listed apart in the source
Description: coupled spectrophotometric assay (pyruvate kinase / lactate dehydrogenase, NADH) on […]

Molecule: OCC1OC(OC2C(CO)OC(OC3C(CO)OC(OC4C(CO)OC(OC5C(CO)OC(OC6C(CO)OC(OC7C(CO)OC(OC8C(CO)OC(O)C(O)C8O)C(O)C7O)C(O)C6O)C(O)C5O)C(O)C4O)C(O)C3O)C(O)C2O)C(O)C(O)C1O (stereo not shown) [maltooctaose]
ΔTm at 10000 µM (HvSSI): 2 °C

Molecule: OC[C@H]1O[C@H](O[C@H]2[C@H](O)[C@@H](O)[C@@H](O[C@H]3[C@H](O)[C@@H](O)[C@@H](O[C@H]4[C@H](O)[C@@H](O)[C@@H](O[C@H]5[C@H](O)[C@@H](O)C(O)O[C@@H]5CO)O[C@@H]4CO)O[C@@H]3CO)O[C@@H]2CO)[C@H](O)[C@@H](O)[C@@H]1O (stereo partly shown) [maltopentaose]
ΔTm at 10000 µM (HvSSI): 1.3 °C

B1: HvSSIIIb (Hordeum vulgare subsp. vulgare) (protein)
chain: SSDYPKRNPRRSSAPKPKGTASRGYAPRPSAESWTSTKKIEHGSADEDGDLGRSNGTLSGDATEQASTAEEESEVEFAGNVSSSAGLEGVAETEKEADQNQLPALSSTSMDVESVNEATEQTIIGDESSVVDFSGNVSGSVALEVVDESETEEEADQKQSSSLASTSMDSESIDRELEGYRARINALVGASTQEQDRSIIGVHDQDKSVISPNEQDISAVDVPEQGLSGVGVTREDPTKQTTSKQEITEAAVEEISSKNFVARKHSISGDGVEASKNANQQPLVDGDELKITEDEEQHEPEMQEYVRKDVDLQALKRRLEELADGNYSIGNKCFVFPELVKADSVIDLYLNRSMSALASEPDILIKGAFNGWRWNHFTERLHKSELSGDWWCCKLYIPKQAYRLDFVFFNGDTVYENNSYNDFVLHIESDIDEHSFEDFLLEEKQRELERLAAEEAERERQAEEERRKEEERAAMEADRAQAKAEVEMTRNNLQHVLGLASRYANNLWYIEPNTYKGGDRVRLYYNRSSGPLKHKNEIWLHGSYNNWTDGPSIVERLVKSDEQDGDWWYANVTLPESALVLDWVFADGPPGNARKYDNNGKRDFHAAVSKSISEDLFWVKEEHRIFERLQRERKEKEDAGRRKAEITARMKAEMKEKTMREFLLSQKHIVYTEPLEVRAGMTVDVLYNPSNTVLNGSPEVWFRCSFNRWTHPSGPLPPQKMVNAENGSHLQATVRVPLDAYMMDFVFSESEEGGMYDNRDGMDYHIPVSDSMAKEPPMHIVHIAVEMAPIAKVGGLGDVVTSLSRAIQDLGHKVEVVFPKYDCLNLSNVKDLHCRQSFTWGGTEIKVWFGKVEGISVYFLEPQNGMFWVGCVYGRNDESRFGFFCHSALEFLLQSGSSPDIIHCHDWSSAPVAWLYKQHYVHNGLPNGRVVFTIHNLEFGVHHIGKAMAHCDKATTVSYTYSKEVSGHGSIAPHYFKFHGIRNGIDSDIWDPYNDNFIPVHYTSENVVEGKSSAKRALQEKLGLHQTDSPLVGIISRLTAQKGIHLIKHAIYRTLERNGQVVLLGSAPDHRIQGDFSNLASKLHGEFDGRVKLCLTYDEPLSHLIYAGADFILVPSIFEPCGLTQLTAMRYGSIPIVRKTGGLYDTVFDVDDDKDRAREQGLEPNGFSFEGADSNGVDYALDRAITTWYDARGWFHSLCKRVMEQDWSWNRPALDYMELYHSARKN
notes: without predicted chloroplast transit peptide, N-terminal His-tag, codon-optimised, E. coli
Km [1]: 440 ± 40 µM
kcat [1]: >740 turnovers·min^-1 (DP = 3)

B2: HvSSI (Hordeum vulgare) (protein)
chain: T1 sequence (Q9M5A3 32-643)
notes: as for B1
Km [2]: 630 ± 20 µM

B3: HvGBSSI (Hordeum vulgare) (protein)
chain: ATGSGMNLVFVGAEMAPWSKTGGLGDVLGGLPPAMAANGHRVMVVSPRYDQYKDAWDTSVISEIKVADEYERVRFFHCYKRGVDRVFIDHPWFLEKVRGKTKEKIYGPDAGTDYEDNQQRFSLLCQAALEAPRILNLNNNPYFSGPYGEDVVFVCNDWHTGLLACYLKSNYQSNGIYRTAKVAFCIHNISYQGRFSFDDFAQLNLPDRFKSSFDFIDGYDKPVEGRKINWMKAGILQADKVLTVSPYYAEELISGEARGCELDNIMRLTGITGIVNGMDVSEWDPTKDKFLAVNYDITTALEAKALNKEALQAEVGLPVDRKVPLVAFIGRLEEQKGPDVMIAAIPEILKEEDVQIILLGTGKKKFEKLLKSMEEKFPGKVRAVVRFNAPLAHQMMAGADLLAVTSRFEPCGLIQLQGMRYGTPCVCASTGGLVDTIVEGKTGFHMGRLSVDCNVVEPADVKKVATTLKRAVKVVGTPAYQEMVKNCMIQDLSWKGPAKNWEDVLLELGVEGSEPGIVGEEIAPLAMENVAAP
notes: as for B1
Km [3]: 90 ± 20 µM

B4: HvSSIV (Hordeum vulgare subsp. vulgare) (protein)
chain: QQRPQRSTAGADHLNTAANVRSDEAAVSAEKERQRKYSDGDGISNLQLEDLVEMIQNTEKNILLLNQARLQAMERADKILKEKEALQRKISILETRLSETDAQHKLSSEGNFSESPLALEFDVLKEENILLKEDIEFFKSKLIEVAKTEEGIFKLEKERALLDASLRELESRFIAAQADMMKLGPRDAWWEKVEKLEDLLETTANQVERAAVILDNNHDLQDKLDKLVASLQAANISKFSSSLVDLLQQKVKLVEERFQACNREMHSQIKLYEHSIVEFHDTLSKLIEESEKRSLENFTGNMPSELWSKISLLIDGWLLEKKISYNDASLLREMVRKRDSRLREAYLSYRGTENREVMDNFLKMALPGTSSGLHIAHIAAEMAPVAKVGGLADVISGLGKALQKKGHLVEIILPKYDCMQVDQVSNLKVLDVPVQSYFEGNMFDNKIWTGTVEGLPVYFIEPQHPAMFFSRAQYYGEHDDFKRFTYFSRAALELLYQSGKKVDIIHCHDWQTAFVAPLYWDVYANLGFNSARICFTCHNFEYQGTAPARDLAWCGLDVEHLDRPDRMRDNSHGRINAVKGAVVYSNIVTTVSPTYALEVLSQGGRGLQDTLKVHSRKFLGILNGIDTDTWNPSTDRYLKVQYNAKDLQGKAANKAALREQLNLASAYPSQPLVGCITRLVAQKGVHLIRHAIYKTAELGGQFVLLGSSPVPEIQREFEGIADHFQDNNNIRLILKYDDALSHCIYAASDMFIVPSIFEPCGLTQMIAMRYGSVPIVRKTGGLNDSVFDFDDETIPVEVRNGFTFVKADEQGLSSAMERAFNCYTRKPEVWKQLVQKDMTIDFSWDTSASQYEDIYQKAVARARAAA
notes: without predicted chloroplast transit peptide, C-terminal His-tag, codon-optimised, E. coli
Km [4]: 310 ± 20 µM

Continued, values first:

ΔTm at 10000 µM (HvSSI): 0.3 °C
Molecule: OC[C@H]1O[C@H](O[C@H]2[C@H](O)[C@@H](O)C(O)O[C@@H]2CO)[C@H](O)[C@@H](O)[C@@H]1O (mixture of isomers) [maltose]

ΔTm at 10000 µM (HvSSI): 0.4 °C
Molecule: C[C@H]1O[C@H](O[C@H]2[C@H](O)[C@@H](O)[C@@H](O[C@H]3[C@H](O)[C@@H](O)C(O)O[C@@H]3CO)O[C@@H]2CO)[C@H](O)[C@@H](O)[C@@H]1N[C@H]1C=C(CO)[C@@H](O)[C@H](O)[C@H]1O (stereo partly shown) [acarbose]

ΔTm at 100000 µM (HvSSI; 100 mM): 1 °C
Molecule: OC[C@H]1OC(O)[C@H](O)[C@@H](O)[C@@H]1O (stereo partly shown) [glucose]
